Consider 39 molecules from patent US7994204B2, “Binding inhibitor of sphingosine-1-phosphate” (Taisho Pharmaceutical Co., Ltd, priority 2006, dated 2011).

The structures appear in SMILES notation.

The target in one data set is T1, human Edg-1 (S1P1) (Homo sapiens, UniProt P21453).
T1 construct: expressed in transfected cells; host or cells: HEK-293
The data set is described as follows: S1P1 binding inhibition test (membrane, [33P]-S1P). Particulars: for inhibition at 10 µM: compound 10 μM, [33P]-S1P 0.1 nM, human Edg-1 (S1P1) HEK-293 membrane fraction, read-out: Binding test (membrane) % inhibition (10 μM); for IC50: membrane system binding test, various concentrations. The procedure, abridged: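 Membranes from Edg-1 (S1P1)-expressing HEK-293 cells incubated 1 h at 30 °C in pH 7.4 Tris buffer with 0.1 nM [33P]-S1P and compound (10^−5 M, or various concentrations for IC50). Filter-bound radioactivity counted; background from non-transfected HEK-293 membranes; inhibition = [1−(A−C)/(B−C)]×100.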

T1 sequence (P21453 whole entry): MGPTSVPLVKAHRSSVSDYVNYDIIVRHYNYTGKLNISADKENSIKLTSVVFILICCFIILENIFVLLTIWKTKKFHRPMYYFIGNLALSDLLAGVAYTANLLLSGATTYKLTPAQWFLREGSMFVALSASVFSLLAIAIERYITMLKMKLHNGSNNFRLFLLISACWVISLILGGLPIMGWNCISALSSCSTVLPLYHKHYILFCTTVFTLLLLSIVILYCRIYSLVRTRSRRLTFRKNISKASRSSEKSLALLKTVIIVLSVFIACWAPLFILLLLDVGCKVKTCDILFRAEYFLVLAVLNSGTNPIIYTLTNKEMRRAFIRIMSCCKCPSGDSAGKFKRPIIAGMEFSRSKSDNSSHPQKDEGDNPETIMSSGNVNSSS

As usually defined, the melting point is the temperature, or range, at which the solid turns liquid. By inhibition is commonly meant the change of the read-out against control, counted positive when it falls. `CCn1c(C(C)NS(=O)(=O)/C=C/c2ccccc2)cnc1Oc1cccc(N2CCN(C)CC2)c1` (centres unmarked) [Compound 245] registered a melting point of 141 to 143 °C. For the same molecule, the inhibition at 10 µM on human Edg-1 (S1P1) is 98.9%.

`CCn1c(C(C)NS(=O)(=O)c2ccc(Cl)c(Cl)c2)cnc1Oc1ccc2ccccc2c1` (centres unmarked) [Compound 206] yielded a melting point of 172 to 173 °C. Further, on human Edg-1 (S1P1), the inhibition at 10 µM is 98.5%.

Broadly, the IC50 is the point on the concentration scale where inhibition reaches its midpoint. Low readings indicate greater potency, high ones weaker potency. `CCn1c(C(C)NS(=O)(=O)c2ccc3c(c2)CCC3)cnc1Oc1cccc(N2CCN(C)CC2)c1` (centres unmarked) [Compound 244]: the melting point lay in the range of 160 to 162 °C. Further, on human Edg-1 (S1P1), the inhibition at 10 µM turned out to be 98.3% and the IC50 stood at 32.5 nM.

`CCn1c(CNS(=O)(=O)c2ccc(Cl)c(Cl)c2)cnc1Oc1ccc(F)cc1` [Compound 210] registered a melting point of 154 to 155 °C. For the same molecule, on human Edg-1 (S1P1), the inhibition at 10 µM was 90.6%.

`CCn1c(C(C)NS(=O)(=O)c2ccc(Cl)c(Cl)c2)cnc1Oc1ccc(OCCN(C)C)cc1` (centres unmarked) [Compound 229] showed a melting point of 106 to 107 °C. Besides, at human Edg-1 (S1P1), the inhibition at 10 µM is 99% and the IC50 was at most 70 nM.

On to `CCn1c(C(C)NS(=O)(=O)c2ccc(Cl)c(Cl)c2)cnc1OCCCCCCN(C)C` (centres unmarked) [Compound 235], for which the melting point lay in the range of 137.5 to 142.5 °C. Besides, at human Edg-1 (S1P1), the inhibition at 10 µM stood at 94% and the half-maximal inhibitory concentration (IC50) was 58.5 nM.

Molecule `CCn1c(C(C)NS(=O)(=O)c2ccc3c(Cl)ccc(Cl)c3c2)cnc1Oc1cccc(N2CCN(C)CC2)c1` (centres unmarked) [Compound 246] returned a melting point of 220 to 223 °C. Moreover, at human Edg-1 (S1P1), the inhibition at 10 µM was determined as 101% and the half-inhibitory concentration (IC50) is at most 15 nM.

`CCn1c(C(C)NS(=O)(=O)c2ccc(Cl)c(Cl)c2)cnc1Oc1ccccc1` (centres unmarked) [Compound 204] showed a melting point of 166.5 to 167.5 °C. Besides, the inhibition at 10 µM at human Edg-1 (S1P1) was 95.7%.

With `CCn1c(C(C)NS(=O)(=O)c2ccc(Cl)c(Cl)c2)cnc1Oc1cccc(N(C)C)c1` (centres unmarked) [Compound 198], the melting point lay in the range of 171 to 172 °C. Also, at human Edg-1 (S1P1), the inhibition at 10 µM was found to be 97.8% and the IC50 came to 10.3 nM.

With `CCn1c(C(C)NS(=O)(=O)c2ccc(Cl)c(Cl)c2)cnc1Oc1cccc(NC(C)=O)c1` (centres unmarked) [Compound 236], the melting point lay in the range of 213.5 to 215.5 °C. On human Edg-1 (S1P1), the inhibition at 10 µM was 96.8% and the IC50 is at most 70 nM.

`C#CCCCOc1ncc(C(C)NS(=O)(=O)c2ccc(Cl)c(Cl)c2)n1CC` (centres unmarked) [Compound 226] returned a melting point of 172.5 to 173.5 °C. In addition, at human Edg-1 (S1P1), the inhibition at 10 µM was found to be 91.5%.

`CCOc1ncc(C(C)NS(=O)(=O)c2ccc(Cl)c(Cl)c2)n1CC` (centres unmarked) [Compound 219] came in with a melting point of 195 to 196 °C. Moreover, at human Edg-1 (S1P1), the inhibition at 10 µM amounted to 83.2%.

`CCn1c(C(Cc2ccc(C)cc2)NS(=O)(=O)c2ccc3c(Cl)cccc3c2)cnc1Oc1ccc(F)cc1` (centres unmarked) [Compound 197] yielded a melting point of 166 to 167 °C. For the same molecule, the inhibition at 10 µM at human Edg-1 (S1P1) turned out to be 95.3%.

With `CCn1c(Oc2ccc(F)cc2)nc(C)c1C(C)NS(=O)(=O)c1ccc(Cl)c(Cl)c1` (centres unmarked) [Compound 188, 3,4-Dichloro-N-{1-[3-ethyl-2-(4-fluorophenoxy)-5-methyl-3H-imidazol-4-yl]-ethyl}-benzenesulfonamide], the melting point was in the range of 119.5 to 120.5 °C. Further, the inhibition at 10 µM at human Edg-1 (S1P1) came to 100%.

For `CCn1c(C(C)NS(=O)(=O)c2ccc(Cl)c(Cl)c2)cnc1S(=O)(=O)c1ccc(C)cc1` (centres unmarked) [Compound 252, 3,4-Dichloro-N-{1-[3-ethyl-2-(toluene-4-sulfonyl)-3H-imidazol-4-yl]-ethyl}-benzenesulfonamide], the melting point was in the range of 180 to 183 °C. The inhibition at 10 µM at human Edg-1 (S1P1) came out at 52.5%.

The molecule `CCn1c(C(C)NS(=O)(=O)c2ccc(Cl)c(Cl)c2)cnc1OCCCN1CCOCC1` (centres unmarked) [Compound 228] registered a melting point of 160.5 to 162.5 °C. Besides, the inhibition at 10 µM on human Edg-1 (S1P1) is 96%.

In turn, `CCn1c(C(Cc2ccc(F)cc2)NS(=O)(=O)c2ccc(Cl)c(Cl)c2)cnc1Oc1ccc(F)cc1` (centres unmarked) [Compound 199] had a melting point of 145.5 to 146.5 °C. Besides, the inhibition at 10 µM at human Edg-1 (S1P1) is 97.3%.

As for `CCn1c(C(C)NS(=O)(=O)c2ccc(Cl)c(Cl)c2)cnc1OCC(F)(F)F` (centres unmarked) [Compound 224], the melting point lay within 133.5 to 134.5 °C. In addition, the inhibition at 10 µM at human Edg-1 (S1P1) was found to be 87%.

Regarding `CCn1c(C(Cc2ccccc2)NS(=O)(=O)c2ccc(Cl)c(Cl)c2)cnc1Oc1ccc(F)cc1` (centres unmarked) [Compound 193], the melting point fell in the range of 114.5 to 115.5 °C. Further, the inhibition at 10 µM on human Edg-1 (S1P1) turned out to be 98.6%.

`CCn1c(C(C)NS(=O)(=O)c2ccc(Cl)c(Cl)c2)cnc1Oc1ccc(C)nc1` (centres unmarked) [Compound 195] gave a melting point of 174 to 175 °C. On human Edg-1 (S1P1), the inhibition at 10 µM turned out to be 96.1% and the IC50 is 20 nM.

`CCc1nc(Oc2ccc(F)cc2)n(CC)c1C(C)NS(=O)(=O)c1ccc(Cl)c(Cl)c1` (centres unmarked) [Compound 225] showed a melting point of 122 to 124 °C. For the same molecule, the inhibition at 10 µM on human Edg-1 (S1P1) came to 98.9%.

Molecule `CCn1c(C(C)NS(=O)(=O)c2ccc(Cl)c(Cl)c2)cnc1Oc1cccc(N2CCCCC2)c1` (centres unmarked) [Compound 208] displayed a melting point of 169.5 to 170.5 °C. Besides, on human Edg-1 (S1P1), the inhibition at 10 µM came to 99.6% and the IC50 is at most 15 nM.

`CCn1c(C(C)NS(=O)(=O)c2ccc(Cl)c(Cl)c2)cnc1OC1CCC1` (centres unmarked) [Compound 231] had a melting point of 162 to 163 °C. In addition, the inhibition at 10 µM on human Edg-1 (S1P1) worked out at 97.4%.

Molecule `CCCOc1ncc(C(C)NS(=O)(=O)c2ccc(Cl)c(Cl)c2)n1CC` (centres unmarked) [Compound 223] came in with a melting point of 181 to 183 °C. The inhibition at 10 µM at human Edg-1 (S1P1) is 92.1%.

On to `CCn1c(C(C)NS(=O)(=O)c2ccc(Cl)c(Cl)c2)cnc1Oc1cccc(C2CCN(C)CC2)c1` (centres unmarked) [Compound 207], for which the melting point was in the range of 161 to 163.5 °C. Further, at human Edg-1 (S1P1), the inhibition at 10 µM is 101% and the IC50 was 18.2 nM.

For the molecule `CCn1c(C(C)NS(=O)(=O)c2ccc3c(Cl)cccc3c2)cnc1Oc1ccc(F)cc1` (centres unmarked) [Compound 187], the melting point is 138 to 141 °C. At human Edg-1 (S1P1), the inhibition at 10 µM came out at 101% and the concentration for half-maximal inhibition (IC50) was at most 35 nM.

As for `CCn1c(C(C)NS(=O)(=O)c2ccc(Cl)c(Cl)c2)cnc1Oc1cccc(-n2ccnc2)c1` (centres unmarked) [Compound 209], the melting point was 170 to 171 °C. For the same molecule, at human Edg-1 (S1P1), the inhibition at 10 µM came to 98.9% and the 50% inhibitory concentration (IC50) was determined as 42 nM.

The molecule `CCn1c(C(NS(=O)(=O)c2ccc3c(Cl)cccc3c2)c2ccccc2)cnc1Oc1ccc(F)cc1` (centres unmarked) [Compound 202] registered a melting point of 171.5 to 172.5 °C. The inhibition at 10 µM on human Edg-1 (S1P1) was determined as 69.3%.

For the molecule `CCn1c(C(Cc2ccc(Cl)cc2)NS(=O)(=O)c2ccc(Cl)c(Cl)c2)cnc1Oc1ccc(F)cc1` (centres unmarked) [Compound 205], the melting point fell in the range of 155.5 to 156.5 °C. Besides, the inhibition at 10 µM on human Edg-1 (S1P1) stood at 94.4%.

Consider `CCn1c(C(Cc2ccc(C)cc2)NS(=O)(=O)c2ccc(Cl)c(Cl)c2)cnc1Oc1ccc(F)cc1` (centres unmarked) [Compound 196], for which the melting point is 123.5 to 124 °C. The inhibition at 10 µM at human Edg-1 (S1P1) was determined as 88.9%.

`CCn1c(C(C)NS(=O)(=O)c2ccc(Cl)c(Cl)c2)cnc1Oc1ccc(C)c(C)c1` (centres unmarked) [Compound 218] displayed a melting point of 102.5 to 107.5 °C. In addition, the inhibition at 10 µM at human Edg-1 (S1P1) stood at 101%.

In the case of `CCn1c(C(C)NS(=O)(=O)c2ccc3c(Cl)cccc3c2)cnc1Oc1cccc(N2CCN(C)CC2)c1` (centres unmarked) [Compound 185], the melting point lay in the range of 205.5 to 206 °C. Moreover, at human Edg-1 (S1P1), the inhibition at 10 µM worked out at 100% and the IC50 was found to be 3.7 nM.

For `CCn1c(C(Cc2ccccc2)NS(=O)(=O)c2ccc3c(Cl)cccc3c2)cnc1Oc1ccc(F)cc1` (centres unmarked) [Compound 194], the melting point was 172.5 to 174 °C. Further, at human Edg-1 (S1P1), the inhibition at 10 µM stood at 93% and the 50% inhibitory concentration (IC50) is at most 70 nM.

On to `C=CCCCOc1ncc(C(C)NS(=O)(=O)c2ccc(Cl)c(Cl)c2)n1CC` (centres unmarked) [Compound 237], for which the melting point stood at 152.5 °C. Also, the inhibition at 10 µM on human Edg-1 (S1P1) was found to be 93.1%.

Take `CCn1c(C(C)NS(=O)(=O)c2ccc(Cl)c(Cl)c2)cnc1Oc1cccc(N2CCOCC2)c1` (centres unmarked) [Compound 190]: the melting point was in the range of 167 to 169 °C. For the same molecule, at human Edg-1 (S1P1), the inhibition at 10 µM came out at 101% and the concentration for half-maximal inhibition (IC50) came to 10.9 nM.

Molecule `CCn1c(C(NS(=O)(=O)c2ccc(Cl)c(Cl)c2)C(C)C)cnc1Oc1ccc(F)cc1` (centres unmarked) [Compound 221] showed a melting point of 101 to 102 °C. The inhibition at 10 µM on human Edg-1 (S1P1) was determined as 52.6%.

`CCCCCCC(NS(=O)(=O)c1ccc(Cl)c(Cl)c1)c1cnc(Oc2ccc(F)cc2)n1CC` (centres unmarked) [Compound 220]: the melting point was 79 to 80 °C. Besides, at human Edg-1 (S1P1), the inhibition at 10 µM turned out to be 68.3%.

In the case of `CCn1c(Oc2ccc(F)cc2)nc(Br)c1C(C)NS(=O)(=O)c1ccc(Cl)c(Cl)c1` (centres unmarked) [Compound 232], the melting point fell in the range of 128.5 to 129.5 °C. Besides, at human Edg-1 (S1P1), the inhibition at 10 µM was 92.3%.

The molecule `CCn1c(C(C)NS(=O)(=O)c2ccc(Cl)c(Cl)c2)cnc1Oc1cc(C)nc(C)c1` (centres unmarked) [Compound 215] returned a melting point of 179 to 180 °C. Besides, the inhibition at 10 µM at human Edg-1 (S1P1) turned out to be 100%.
